In patent publication US20090311217A1, “3-SUBSTITUTED-1H-INDOLE COMPOUNDS, THEIR USE AS MTOR KINASE AND PI3 KINASE INHIBITORS, AND THEIR SYNTHESES” (priority 2008, published 2009):

Legend:
PI3K-alpha = PI3K-alpha (Homo sapiens, UniProt P42336); assay: PI3K-alpha fluorescence polarization assay; type: biochemical; details: read-out: PI3Kα Avg. IC50
human TOR = target: T1, human TOR (Homo sapiens, UniProt P42345); assay: mTOR enzyme assay (DELFIA, His6-S6K substrate); type: biochemical; details: read-out: mTOR Kinase Avg. IC50
T1 construct: FLAG

Chain of PI3K-alpha (P42336 whole entry, species assumed): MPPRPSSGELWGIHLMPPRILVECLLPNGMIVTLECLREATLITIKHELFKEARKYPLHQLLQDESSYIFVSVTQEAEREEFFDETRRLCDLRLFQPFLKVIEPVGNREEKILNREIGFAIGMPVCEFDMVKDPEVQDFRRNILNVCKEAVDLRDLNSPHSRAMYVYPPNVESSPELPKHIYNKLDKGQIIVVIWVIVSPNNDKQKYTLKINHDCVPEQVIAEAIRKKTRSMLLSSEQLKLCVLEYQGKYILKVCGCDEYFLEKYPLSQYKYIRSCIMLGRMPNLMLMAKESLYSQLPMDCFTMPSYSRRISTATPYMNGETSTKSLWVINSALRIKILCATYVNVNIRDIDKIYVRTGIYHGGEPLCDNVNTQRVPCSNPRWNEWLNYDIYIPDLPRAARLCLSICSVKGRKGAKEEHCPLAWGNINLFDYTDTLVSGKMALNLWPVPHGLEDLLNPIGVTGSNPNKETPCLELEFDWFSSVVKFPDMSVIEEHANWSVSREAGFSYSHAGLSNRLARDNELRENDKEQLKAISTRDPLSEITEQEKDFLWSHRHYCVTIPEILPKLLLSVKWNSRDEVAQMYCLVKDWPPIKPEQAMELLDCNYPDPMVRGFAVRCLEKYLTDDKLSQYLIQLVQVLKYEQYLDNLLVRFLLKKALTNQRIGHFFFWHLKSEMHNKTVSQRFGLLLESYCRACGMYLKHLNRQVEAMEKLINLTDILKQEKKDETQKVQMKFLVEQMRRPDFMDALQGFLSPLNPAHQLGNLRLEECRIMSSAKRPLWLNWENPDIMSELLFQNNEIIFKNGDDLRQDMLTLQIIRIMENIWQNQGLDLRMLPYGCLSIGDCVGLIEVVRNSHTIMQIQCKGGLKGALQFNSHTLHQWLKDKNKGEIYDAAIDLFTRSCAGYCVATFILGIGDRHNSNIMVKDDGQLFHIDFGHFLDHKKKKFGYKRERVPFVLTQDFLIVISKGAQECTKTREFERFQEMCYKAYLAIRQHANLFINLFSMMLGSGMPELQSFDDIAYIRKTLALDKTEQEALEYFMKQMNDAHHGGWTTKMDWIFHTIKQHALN
Chain of PI3K-alpha (P27986 whole entry partner, species assumed): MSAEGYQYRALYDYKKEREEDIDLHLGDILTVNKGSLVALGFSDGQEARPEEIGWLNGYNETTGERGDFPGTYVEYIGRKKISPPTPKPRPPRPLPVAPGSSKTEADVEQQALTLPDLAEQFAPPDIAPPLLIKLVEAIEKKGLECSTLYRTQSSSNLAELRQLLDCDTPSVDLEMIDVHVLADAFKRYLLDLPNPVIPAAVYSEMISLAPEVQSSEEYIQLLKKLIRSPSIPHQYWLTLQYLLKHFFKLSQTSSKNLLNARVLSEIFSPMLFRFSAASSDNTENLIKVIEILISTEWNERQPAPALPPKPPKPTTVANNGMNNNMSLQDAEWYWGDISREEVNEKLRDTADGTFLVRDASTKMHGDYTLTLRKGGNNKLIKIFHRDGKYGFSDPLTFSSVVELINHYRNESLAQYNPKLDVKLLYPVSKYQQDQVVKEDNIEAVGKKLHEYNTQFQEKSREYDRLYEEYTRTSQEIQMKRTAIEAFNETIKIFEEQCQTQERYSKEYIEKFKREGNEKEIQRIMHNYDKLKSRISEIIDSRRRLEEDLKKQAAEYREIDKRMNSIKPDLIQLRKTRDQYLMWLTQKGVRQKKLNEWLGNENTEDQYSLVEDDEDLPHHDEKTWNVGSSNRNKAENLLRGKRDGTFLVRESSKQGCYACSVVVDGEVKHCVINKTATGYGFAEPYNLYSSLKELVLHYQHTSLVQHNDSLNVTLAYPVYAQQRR

Row | IC50 (PI3K-alpha) [µM] | IC50 (human TOR) [µM] | SMILES
1 | 3.59 | 9.1 | CS(=O)(=O)c1ccc2c(C=C3Oc4cc(O)cc(O)c4C3=O)c[nH]c2c1 [Example 169, 4,6-dihydroxy-2-{[6-(methylsulfonyl)-1H-indol-3-yl]methylene}-1-benzofuran-3(2H)-one]
2 | 5.77 | > 20 | Cc1ccc2[nH]cc(C=C3Oc4cc(O)cc(O)c4C3=O)c2c1 [Example 170, 4,6-dihydroxy-2-[(5-methyl-1H-indol-3-yl)methylene]-1-benzofuran-3(2H)-one]
3 | 1.47 | 12.5 | O=C1C(=Cc2c[nH]c3ccc([N+](=O)[O-])cc23)Oc2cc(O)cc(O)c21 [Example 178, 4,6-dihydroxy-2-[(5-nitro-1H-indol-3-yl)methylene]-1-benzofuran-3(2H)-one]
4 | 2.47 | 16 | O=C1C(=Cc2c[nH]c3cc([N+](=O)[O-])ccc23)Oc2cc(O)cc(O)c21 [Example 179, 4,6-dihydroxy-2-[(6-nitro-1H-indol-3-yl)methylene]-1-benzofuran-3(2H)-one]
5 | 1.2 | 6.1 | O=C(Nc1ccc2[nH]cc(C=C3Oc4cc(O)cc(O)c4C3=O)c2c1)c1ccco1 [Example 183, N-{3-[(4,6-dihydroxy-3-oxo-1-benzofuran-2(3H)-ylidene)methyl]-1H-indol-5-yl}-2-furamide]

Second part, the molecule before the results:

Row | SMILES | IC50 (PI3K-alpha) [µM] | IC50 (human TOR) [µM]
6 | N#Cc1ccc2c(C=C3Oc4cc(O)cc(O)c4C3=O)c[nH]c2c1 [Example 167, 3-[(4,6-dihydroxy-3-oxo-1-benzofuran-2(3H)-ylidene)methyl]-1H-indole-6-carbonitrile] | 6.76 | 5.3
7 | O=C1C(=Cc2c[nH]c3cc4c(cc23)OCO4)Oc2cc(O)cc(O)c21 [Example 168, 2-(5H-[1,3]dioxolo[4,5-f]indol-7-ylmethylene)-4,6-dihydroxy-1-benzofuran-3(2H)-one] | 6.54 | > 20
8 | O=C1C(=Cc2c[nH]c3cc(Cl)ccc23)Oc2cc(O)cc(O)c21 [Example 172, 2-[(6-chloro-1H-indol-3-yl)methylene]-4,6-dihydroxy-1-benzofuran-3(2H)-one] | 0.936 | 19
9 | O=C1C(=Cc2c[nH]c3cc(F)ccc23)Oc2cc(O)cc(O)c21 [Example 176, 2-[(6-fluoro-1H-indol-3-yl)methylene]-4,6-dihydroxy-1-benzofuran-3(2H)-one] | 1.55 | 8.7
10 | O=C1C(=Cc2c[nH]c3c([N+](=O)[O-])cccc23)Oc2cc(O)cc(O)c21 [Example 180, 4,6-dihydroxy-2-[(7-nitro-1H-indol-3-yl)methylene]-1-benzofuran-3(2H)-one] | 3.12 | > 20
11 | COc1ccc2c(C=C3Oc4cc(O)cc(O)c4C3=O)c[nH]c2c1 [Example 186, 4,6-dihydroxy-2-[(6-methoxy-1H-indol-3-yl)methylene]-1-benzofuran-3(2H)-one] | 5.76 | 16
12 | CCc1cccc2c(C=C3Oc4cc(O)cc(O)c4C3=O)c[nH]c12 [Example 187, 2-[(7-ethyl-1H-indol-3-yl)methylene]-4,6-dihydroxy-1-benzofuran-3(2H)-one] | 5 | > 20
13 | Cc1noc(C)c1-c1c(C=C2Oc3cc(O)cc(O)c3C2=O)c2ccccc2n1C [Example 191, 2-{[2-(3,5-dimethylisoxazol-4-yl)-1-methyl-1H-indol-3-yl]methylene}-4,6-dihydroxy-1-benzofuran-3(2H)-one] | 4.18 | 0.39
14 | Cn1c(-c2cccc(O)c2)c(C=C2Oc3cc(O)cc(O)c3C2=O)c2ccccc21 [Example 192, 4,6-dihydroxy-2-{[2-(3-hydroxyphenyl)-1-methyl-1H-indol-3-yl]methylene}-1-benzofuran-3(2H)-one] | 2.42 | 0.39
15 | COc1ccc(-c2c(C=C3Oc4cc(O)cc(O)c4C3=O)c3ccccc3n2C)cc1 [Example 195, 4,6-dihydroxy-2-{[2-(4-methoxyphenyl)-1-methyl-1H-indol-3-yl]methylene}-1-benzofuran-3(2H)-one] | 1.03 | 0.38
